According to patent US10106565B2 (priority 2008, dated 2018):

Experiments:
[1] = tested on: purified CD4 T lymphocytes; assay type: cell-based, human; conditions: 20 μM dendrimer; anti-CD3/anti-CD28 microbeads and IL2; without dendrimer 88%
Description: PBMC from adult healthy volunteers are prepared as described in example 5.1.
CD4 T lymphocytes are then purified from PBMC by positive selection using microbeads conjugated with anti-CD4 mAb, according to the manufacturer's instructions (Miltenyi Biotec). The cells obtained after the purification are >98% pure (as verified by flow cytometry).
Purified CD4 T lymphocytes are cultured at a final concentration of 1.5×10^6 cells/mL in complete RPMI 1640 medium (as described in example 5.1). Then, their proliferation is triggered by microbeads coated with anti-CD3 and anti-CD28 mAbs (Dynabeads®, Dynal Biotech ASA). Dendrimer Gc1 and its analogs are made soluble in sterile water at 2 mM and filtered through a 0.2 μm membrane before use at 20 μM in culture.
Proliferation of purified CD4 T lymphocytes is evaluated by flow cytometry by analyzing the intracellular dilution of a fluorescent probe: the CFSE.

[2] = tested on: human monocytes; assay: Flow cytometry phenotype of dendrimer-activated monocytes (surface markers); assay type: cell-based; conditions: 20 μM, compared with alt- and class-monocytes
Description: For the functional experiments, freshly purified monocytes are cultured in 6-well plates. The cells are stimulated for 24 hours (immunophenotyping by flow cytometry analyses, MLR) or 96 hours (CD206 detection) with different stimuli or remain untreated (control). Dendrimer-activated monocytes (da-monocytes) are obtained with 20 μM of the dendrimer Gc1, alternatively-activated monocytes (alt-monocytes) with 10 U/mL recombinant human IL4 (Peprotech). The classical activation of monocytes is obtained by priming the cells over night (18 hours) with 100 U/mL of human recombinant IFN-γ (R&D Systems) and, after a washing step in PBS, by stimulation with 10 ng/mL LPS from E. coli 011/B4 strain (InvivoGen) for the remaining 6 hours or […].
Flow cytometry is performed on a LSR-II cytometer (BD Biosciences). The data are analyzed with FACSDiva (BD Biosciences) or WinMDI softwares. The expression of surface markers is performed using mouse anti-human fluorochrome-conjugated mAbs specific for MHC class II-FITC (clone Tü36), CD86-PE (clone 2331), MHC class I-PE-Cy5 (clone G46-2.6) and CD13-PE (clone WM15) from BD Biosciences and specific for CD64-FITC (clone 22) and CD206-PE (clone 3.29B1.10) from Beckman-Coulter. Appropriate isotype-matched antibodies are used as negative control.

[3] = tested on: human monocytes; assay: Differentiation of monocytes in osteoclasts (M-CSF and sRANK-Ligand); assay type: cell-based
Description: PBMC from adult healthy volunteers are prepared as described in example 1.
Monocytes are then purified by negative selection using a kit containing a mixture of mouse anti-human mAbs and superparamagnetic polystyrene beads coated with a human anti-mouse IgG mAbs, according to the manufacturer's instructions (Dynal). The cells obtained after the purification are >90% pure.
Pure monocytes are activated or not during 6 hours with 20 μM of dendrimer Gc1. After three washings, activated and not activated monocytes are cultured for 21 days in α-MEM complete medium, i.e. supplemented with 10% of heat inactivated fetal calf serum (FCS) (Invitrogen), 2 mM L-glutamine, 100 U/mL penicillin and 100 μg/mL streptomycin (Cambrex Bioscience) in presence or not of 20 μM of dendrimer Gc1. To generate osteoclasts, 50 ng/mL of M-CSF (PeproTech) and 30 ng/mL of sRANK-Ligand (PeproTech) are added to the culture medium. Each three days, half medium is changed and 25 ng/mL of M-CSF and 100 ng/mL of sRANK-Ligand are added. At day 21, the cells are fixed and stained with the leucocyte phosphatase acid kit according to the manufacturer's instructions (Sigma-Aldrich).

[4] = tested on: human monocytes; assay: Affymetrix genechip transcriptional profile of monocytes activated by dendrimer; assay type: cell-based; conditions: 20 μM, 6 hours, vs untreated monocytes
Description: Peripheral Blood Mononuclear Cells (PBMC) from adult healthy volunteers are prepared as described in example 1.
Monocytes are then purified by positive selection using microbeads conjugated with anti-CD14 mAb, according to the manufacturer's instructions (Miltenyi Biotec). The cells obtained after the purification are >95% pure. The CD14 negative fraction is collected as Peripheral Blood Lymphocytes (PBL).
Monocytes are cultured at a final concentration of 1×10^6 cells/mL in complete RPMI 1640 medium (as described in example 1.1).
For genechip analysis, 10×10^6 monocytes from 3 donors (and from 3 more donors for quantitative PCR) are cultured in 25 cm^2 dishes. They are stimulated with 20 μM of dendrimer for 6 hours or remain untreated (control cells).
Total RNA are extracted from 10×10^6 monocytes using TRIzol™ Reagent (Invitrogen), according to the manufacturer's instructions. The quality and integrity of the RNA obtained are assessed by using an Agilent 2100 Bioanalyser (Agilent Technologies) after a denaturating step at 70° C. for 2 minutes. cRNA are prepared according to one-Cycle Target Labelling protocol (Affymetrix) starting from 1 μg of total RNA.
cRNA are fragmented and hybridized to Affymetrix HG-U133 plus 2.0 arrays. […] Monocytes from 3 donors are analyzed after 6 hour incubation in the presence or absence of the dendrimer Gc1. […]

## CN(/N=C/c1ccc(OP2(Oc3ccc(/C=N/N(C)P(=S)(Oc4ccc(CCN(CP(=O)(O)O)CP(=O)(O)O)cc4)Oc4ccc(CCN(CP(=O)(O)O)CP(=O)(O)O)cc4)cc3)=NP(Oc3ccc(/C=N/N(C)P(=S)(Oc4ccc(CCN(CP(=O)(O)O)CP(=O)(O)O)cc4)Oc4ccc(CCN(CP(=O)(O)O)CP(=O)(O)O)cc4)cc3)(Oc3ccc(/C=N/N(C)P(=S)(Oc4ccc(CCN(CP(=O)(O)O)CP(=O)(O)O)cc4)Oc4ccc(CCN(CP(=O)(O)O)CP(=O)(O)O)cc4)cc3)=NP(Oc3ccc(/C=N/N(C)P(=S)(Oc4ccc(CCN(CP(=O)(O)O)CP(=O)(O)O)cc4)Oc4ccc(CCN(CP(=O)(O)O)CP(=O)(O)O)cc4)cc3)(c3ccc(/C=N/N(C)P(=S)(Oc4ccc(CCN(CP(=O)(O)O)CP(=O)(O)O)cc4)Oc4ccc(CCN(CP(=O)(O)O)CP(=O)(O)O)cc4)cc3)=N2)cc1)P(=S)(Oc1ccc(CCN(CP(=O)(O)O)CP(=O)(O)O)cc1)Oc1ccc(CCN(CP(=O)(O)O)CP(=O)(O)O)cc1 (stereo not drawn) [Gc1]
[1]
  purified CD4 T lymphocytes that have divided: 10.2%
[2]; 24 hours
  cell surface expression of CD13 (aminopeptidase N): Class-monocytes express a higher level of CD13 than alt- and da-monocytes
  cell surface expression of CD64 (FcγRI): overexpressed in class-monocytes, but not in alt- or da-monocytes
  expression of HLA-DR, HLA-A,B,C and CD86 (antigen-presenting capacity): poor APC
[2]; 96 hours
  cell surface expression of mannose receptor MRC1 (CD206): strongly enhanced
[3]; 20 μM added in the culture medium, 21 days
  differentiation of human monocytes in osteoclasts: inhibits
[3]; monocytes pre-incubated with 20 μM during 6 hours, then rinsed
  differentiation of human monocytes in osteoclasts: inhibition
[4]; fold change ≤−2.0 in at least two of three donors
  number of genes under-expressed by da-monocytes: 62
[4]; fold change ≥2.0 in at least two of three donors
  number of genes over-expressed by da-monocytes: 78
